Experimental data: US12569506B2, “Methods of treating osteonecrosis with LLP2A-bisphosphonate compounds” (The Regents of the University of California, priority 2016, dated 2026)
Entries after “also recorded” stand apart in the source; their conditions may differ. Read-outs that look alike come from different tables or passages of the source.

Tests used:
[1] = test system: dexamethasone-treated mice; format: in vivo, BALB/c mice; settings: for Samples with three or more osteonecrosis characteristics (number/total) / Samples with three or more osteonecrosis characteristics (percent): day 90
Procedure: FIG. 7. Prevalence of osteonecrosis in dexamethasone-treated mice. Mice were treated for 90 days with dexamethasone (Dex), 4 mg/l in drinking water or placebo (PL) (fresh water). At day 30, the Dex-treated mice were re-randomized to Dex alone, Dex+250 μg/kg LLP2A-Ale, Dex+500 μg/kg LLP2A-Ale, and Dex+750 μg/kg LLP2A-Ale. The LLP2A-Ale treatments were given on days 30, 45, 60, and 75. All mice were euthanized at day 90. Right and left distal femurs were fixed in 10% neutral buffer formalin and decalcified. The specimens were dehydrated, embedded in paraffin, cut into 5 micron sections and H&E stained. The sections were evaluated for osteonecrosis by bright light microscopy using modified criteria reported by Yang et al., J. Orthop. Res., 27:169-75 (2009)), which defines osteonecrosis by the presence of the five following characteristics: (1) empty lacunae, (2) pyknotic osteocyte nuclei in areas of empty lacunae and necrosis of adjacent bone marrow, (3) presence of excessive fat cells in the bone marrow, (4) cartilage degradation, and (5) presence of fibrin thrombi in the blood vessels. Each GC-treated group and placebo group were assessed for all five osteonecrosis characteristics or the presence of at least three of the five osteonecrosis characteristics described above.
The efficacy of LLP2A-Ale was evaluated over a 90 day study using a mouse model of glucocorticoid-induced osteonecrosis. Seven week-old male mice (BALB/c (n=80, Jackson laboratories, USA) were housed in a sanitary ventilated animal room maintained at 20° C. with a 12-hour light/dark cycle. All animals were handled according to the USDA animal care guidelines with the approval of the UC Davis Committee on Animal Research. The mice were given water and standard commercial rodent chow (22/5 Rodent Diet; Teklad, Madison, WI) ad libitum. The animals were weight randomized to either a placebo group (fresh water) or glucocorticoid only (4 mg/L dexamethasone (Dex) in drinking water) and treated for 90 days. At day 30, the Dex-treated mice were then re-randomized to Dex alone, Dex+250 μg/kg LLP2A-Ale, Dex+500 μg/kg LLP2A-Ale and Dex+750 μg/kg LLP2A-Ale. The LLP2A-Ale treatments were given on days 30, 45, 60 and 75. Additionally, 0.1 mg/kg methotrexate was administered twice weekly by subcutaneous injection from day 1-42 in all groups receiving glucocorticoid.
All the mice were euthanized at day 90. The body weights of all the study animals were assessed each week. If the study animals had 10% loss of body weight compared to the previous week, the dose of dexamethasone was reduced to 2 mg/L, until weight gain was observed. All of the animals were injected with calcein (30 mg/kg) and alizarin red (20 mg/kg) at 7 and 2 days before euthanization.
Both the right and left distal femurs were fixed in 10% neutral buffered formalin and were shaken for 3 days, then decalcified in 5% EDTA until the bones were fully decalcified. The specimens were then processed in ascending concentrations of ethanol and embedded in paraffin. Tissue sections were cut into 5 microns sections, stained with hematoxylin and eosin and evaluated for the presence of osteonecrosis by bright field microscopy at 20× magnification. Experimental methods are also described in Mohan et al., Calif Tissue Int (2016) doi:10.1007/s00223-016-0195-6, which is incorporated herein by reference in its entirety for all purposes. Osteonecrosis was detected using modified criteria reported by Yang el al., (a mouse model for glucocorticoid-induced osteonecrosis: Effect of a steroid holiday. J Orthop Res. 2009; 27:169-75) which defines osteonecrosis as requiring all of the following changes: (1) empty lacunae, (2) pyknotic osteocyte nuclei in areas of empty lacunae and necrosis of adjacent bone marrow, (3) presence of excessive fat cells in the bone marrow, (4) cartilage degradation and (5) presence of fibrin thrombi in the blood vessels. […]

[2] = test system: glucocorticoid-treated mice; experiment: 56 day mouse model of glucocorticoid-induced osteonecrosis: femur blood vessel / vascular density by microCT; format: in vivo
Procedure: FIG. 2. Blood vessel density of femurs from glucocorticoid-treated mice. 4 month old male mice were treated glucocorticoid (“GC”) or placebo for 56 days. At day 28 a group of glucocorticoid-treated mice were treated with LLP2A-Ale or PTH for an additional 28 days.
FIG. 3. Vascular density of femurs from glucocorticoid-treated mice. 4 month old male mice were treated with glucocorticoid or placebo for 56 days. At day 28 a group of glucocorticoid-treated mice were treated with LLP2A-Ale or PTH for an additional 28 days. At day 56 animals were given a contrast agent and then sacrificed and then the animals femurs were decalcified and then scanned by microCT.
The efficacy of LLP2A-Ale was evaluated using a mouse model of glucocorticoid-induced osteonecrosis. 4-month-old male mice were treated for 56 days with glucocorticoids. At day 28, a group of mice was treated with either LLP2A-Ale or PTH for an additional 28 days. Blood vessel density of the femur was measured after sacrifice by microCT according to published methods. […] Vascular density of the femurs of glucocorticoid-treated mice subsequently treated with LLP2A-Ale or PTH was also assessed by giving the mice a contrast agent, then sacrificing the mice, decalcifying the femurs, and scanning the femurs by microCT. […] Without being bound to a particular theory, it is believed that LLP2A-Ale promotes increased vascularity by bringing MSCs to the bone that is turning over with osteonecrosis, which stimulates new blood vessel formation, which in turn is needed to stimulate new bone formation in the osteonecrotic bone.

[3] = Dex + LLP2A-Ale 250 μg/kg on days 30, 45, 60, 75
[4] = Dex + LLP2A-Ale 500 μg/kg on days 30, 45, 60, 75
[5] = LLP2A-Ale 750 μg/kg on days 30, 45, 60, 75

## Cc1ccccc1NC(=O)Nc1ccc(CC(=O)N[C@@H](CCCCNC(=O)/C=C/c2cccnc2)C(=O)N[C@@H](CCCC(=O)O)C(=O)NC2(C(=O)NCCOCCOCCNC(=O)CCC(=O)NCCOCCOCCNC(=O)CCC(=O)N[C@@H](CCCCNC(=O)[C@H](N)CSC3CC(=O)N(CC4CCC(C(=O)NCCCC(O)(P(=O)(O)O)P(=O)(O)O)CC4)C3=O)C(N)=O)CCCCC2)cc1 (stereo partly drawn) [LLP2A-Ale]
[1]; [3]
  Samples with three or more osteonecrosis characteristics (number/total): 12/16
  Samples with three or more osteonecrosis characteristics (percent): 75%
[1]; [4]
  Samples with three or more osteonecrosis characteristics (number/total): 9/16
  Samples with three or more osteonecrosis characteristics (percent): 56%
[1]; Dex alone vs Dex+LLP2A-Ale groups, day 90 (FIG. 7)
  Number of mice per group showing all five (or at least three) osteonecrosis characteristics: decreased
[1]; [5]
  Samples with three or more osteonecrosis characteristics (number/total): 11/16
  Samples with three or more osteonecrosis characteristics (percent): 69%
[2]; 4 month old male mice, GC 56 days, LLP2A-Ale or PTH from day 28 for 28 days, microCT after sacrifice (FIG. 2)
  Blood vessel density of the femur: significantly higher than the negative control; also recorded: significantly different from all other groups
[2]; contrast agent at day 56, decalcified femurs scanned by microCT (FIG. 3), vs GC alone
  Vascular density of femurs: increased vascular density compared to glucocorticoid alone; also recorded: increased vascular density compared to GC alone
